From patent US12691070B2, “Cationic lipids and preparation method thereof” (RiboX Therapeutics HK Limited, priority 2023, dated 2026)

Assays:
[1] = LNP size and polydispersity index (PDI) by dynamic light scattering; type: physicochemical; settings: for Size: in nm (unit assumed)
In short: (§1)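 Ribogreen fluorescence with and without Triton X-100 gave encapsulation as 100% − (intact/lysed) signal; DLS size, PDI and zeta potential measured on a Zetasizer. Particles: 50:10:38.5:1.5 lipid mix, luciferase circRNA or mRNA, lipid:nucleotide 15 or 6, microfluidic assembly at pH 4.5, PBS-dialyzed.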

[2] = LNP zeta potential (Zetasizer); type: physicochemical
In short: as §1

[3] = RNA encapsulation efficacy by Quant-IT Ribogreen kit; type: physicochemical; settings: for Encapsulation Efficiency %: LNP with cirRNA (SEQ ID NO: 1); for Encapsulation Efficiency: LNP with mRNA (SEQ ID NO: 2)
In short: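 Encapsulation efficacy came from Ribogreen fluorescence of LNPs compared with Triton X-100-lysed LNPs. The particles carried luciferase-encoding circular or linear RNA at an ionizable lipid:ribonucleotide ratio of 15 or 6.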

Hep G2 cells [4] = experiment: In vitro expression of firefly-luciferase, Hep G2; type: cell-based
In short: (§2)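 Transfection used 100 ng/mL luciferase-encoding RNA-LNPs; activity in lysates was determined at 72 h.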

RAW 264.7 cells [5] = experiment: In vitro expression of firefly-luciferase, RAW 264.7; type: cell-based
In short: as §2

Hep G2 cells [6] = experiment: In vitro toxicity (CellTiter-Glo cell viability), Hep G2; type: cell-based;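 also: percent of untreated cells luminescence signal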
In short: (§3)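 Viability after a 72 h incubation with 1 μg/mL RNA-LNP formulations was assessed luminometrically using CellTiter-Glo.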

RAW 264.7 cells [7] = experiment: In vitro toxicity (CellTiter-Glo cell viability), RAW 264.7; type: cell-based;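 also: percent of untreated cells luminescence signal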
In short: as §3

BALB/C mice [8] = experiment: In vivo expression, whole-body luminescence (IVIS)
Protocol: 6-8 week old, female BALB/C mice were injected with 0.05 mg*kg-1 of RNA-LNPs encoding for firefly-luciferase by intravenous injection. At 6 hours post injection, animals were intraperitoneally injected with 15 mg/ml of Luciferin substrate and whole-body luminescence was determined by a bioluminescent in vivo imaging system (IVIS).

MCP-I = MCP-I cytokine elevation in serum; type: in vivo; settings: cirRNA (SEQ ID NO: 1) LNPs, mice
Protocol: 6-8 week old, female BALB/C mice were injected with 0.5 mg*kg-1 of RNA LNPs by intravenous injection. At 2 and 24 hours post injection, animals were bled and sera concentrations of MCP-I were determined by an immunoassay (Luminex).

[9] = system: Alanine Aminotransferase (ALT); experiment: Liver enzyme elevation in serum, ALT; type: in vivo; settings: cirRNA (SEQ ID NO: 1) LNPs, BALB/C mice, intravenous 0.5 MPK
Protocol: (§4) 6-8 week old, female BALB/C mice were injected with 0.5 mg*kg-1 of RNA LNPs by intravenous injection. At 2 and 24 hours post injection, animals were bled and sera concentrations of Alanine Aminotransferase (ALT) and Aspartate Aminotransferase (AST) were determined by a blood chemistry analyzer.

[10] = system: Aspartate Aminotransferase (AST); experiment: Liver enzyme elevation in serum, AST; type: in vivo; settings: cirRNA (SEQ ID NO: 1) LNPs, BALB/C mice, intravenous 0.5 MPK
Protocol: as §4

BALB/C mice [11] = experiment: Local tolerance determination by footpad injection; type: in vivo; settings: cirRNA (SEQ ID NO: 1) LNP, 0.175 mg*kg-1 subcutaneous into the footpad, 24 hours post minus prior
Protocol: 6-8 week old, female BALB/C mice were injected with 0.175 mg*kg-1 RNA LNPs by subcutaneous injection into the footpad. Prior to, and 24 hours post injections, injected footpad thickness was determined by a caliper.

[12] = cirRNA (SEQ ID NO: 1) LNPs, firefly-luciferase luminescence, Hep G2 cells
[13] = mRNA (SEQ ID NO: 2) LNP, 100 ng/mL, 72 hours post transfection, luciferase activity
[14] = cirRNA (SEQ ID NO: 1) LNPs, firefly-luciferase luminescence, RAW 264.7 cells
[15] = cirRNA (SEQ ID NO: 1) LNPs, Hep G2 cells
[16] = mRNA (SEQ ID NO: 2) LNP, 1 μg/mL, 72 hours post transfection
[17] = cirRNA (SEQ ID NO: 1) LNPs, RAW 264.7 cells
[18] = cirRNA (SEQ ID NO: 1) LNPs, BALB/C mice
[19] = mRNA (SEQ ID NO: 2) LNP, 0.05 mg*kg-1 intravenous, 6 hours post injection

SMILES	PDI ([1]; LNP with cirRNA (SEQ ID NO: 1))	Size ([1]; LNP with cirRNA (SEQ ID NO: 1))	PDI ([1]; LNP with mRNA (SEQ ID NO: 2))	Size ([1]; LNP with mRNA (SEQ ID NO: 2))	Zeta (mV) ([2]; LNP with cirRNA (SEQ ID NO: 1))	Zeta (mV) ([2]; LNP with mRNA (SEQ ID NO: 2))	Encapsulation Efficiency % [3] [%]	Encapsulation Efficiency [3] [%]	In vitro Expression HepG2 (Hep G2 cells [4]; [12])	In vitro Expression HepG2 (Hep G2 cells [4]; [13])	In vitro Expression RAW (RAW 264.7 cells [5]; [14])	In vitro Expression RAW (RAW 264.7 cells [5]; [13])	In vitro Viability HepG2 (Hep G2 cells [6]; [15]) [%]	In vitro Viability HepG2 (Hep G2 cells [6]; [16]) [%]	In vitro Viability RAW (RAW 264.7 cells [7]; [17]) [%]	In vitro Viability RAW (RAW 264.7 cells [7]; [16]) [%]	In vivo Expression (Whole Body) (BALB/C mice [8]; [18])	In vivo Expression (Whole Body) (BALB/C mice [8]; [19])	MCP-I in Sera 2 hours After 0.5 MPK Injection (MCP-I) [pg/mL]	MCP-I in Sera 24 hours After 0.5 MPK Injection (MCP-I) [pg/mL]	further results
CCCCCCCCCCC(CCCCCCCC)COC(=O)CCCCCN(CCCCCC(=O)OCC(CCCCCCCC)CCCCCCCCCC)CCOC(=O)NCCN1CCCC1 (centres unmarked) [Lipid 168]	0.06	93.98	0.101	68.36	−0.573	0.8152	97	89.10	1.03E+07	1.80E+07	1.66E+06	6.99E+05	55	70	79	75	4.82E+08	5.89E+09	4607.51	75.08	ALT in Sera (IU/L) 2 hours After 0.5 MPK Injection [9]: 72.80 IU/L; ALT in Sera (IU/L) 24 hours After 0.5 MPK Injection [9]: 57.60 IU/L; AST in Sera (IU/L) 2 hours After 0.5 MPK Injection [10]: 218.63 IU/L; AST in Sera (IU/L) 24 hours After 0.5 MPK Injection [10]: 139.13 IU/L; Footpad Thickness (24 h−0 h, mm) (BALB/C mice [11]): 1.13 mm
CCCCCCCCCCC(CCCCCCCC)COC(=O)CCCCCN(CCCCCC(=O)OCC(CCCCCCCC)CCCCCCCCCC)CCOC(=O)NCCN1CCCCC1 (centres unmarked) [Lipid 169]	0.003	73.59	0.07881	88.09	−2.92	−0.8755	95	87.64	1.94E+06	1.59E+07	5.36E+05	2.87E+06	88	93	82	83	4.92E+08	1.46E+09	509.14	80.18	ALT in Sera (IU/L) 2 hours After 0.5 MPK Injection [9]: 65.40 IU/L; ALT in Sera (IU/L) 24 hours After 0.5 MPK Injection [9]: 57.80 IU/L; AST in Sera (IU/L) 2 hours After 0.5 MPK Injection [10]: 129.50 IU/L; AST in Sera (IU/L) 24 hours After 0.5 MPK Injection [10]: 87.00 IU/L; Footpad Thickness (24 h−0 h, mm) (BALB/C mice [11]): 0.84 mm
CCCCCCCCCCC(CCCCCCCC)COC(=O)CCCCCN(CCCCCC(=O)OCC(CCCCCCCC)CCCCCCCCCC)CCOC(=O)NCCN(C)C (centres unmarked) [Lipid 170]	0.08	96.82	0.0744	165.8	−0.455	3.233	97	86.13	2.91E+07	2.23E+08	3.14E+06	2.87E+02	31	124	92	82	3.35E+08	1.02E+09	1322.04	922.24	ALT in Sera (IU/L) 2 hours After 0.5 MPK Injection [9]: 62.53 IU/L; ALT in Sera (IU/L) 24 hours After 0.5 MPK Injection [9]: 66.47 IU/L; AST in Sera (IU/L) 2 hours After 0.5 MPK Injection [10]: 175.67 IU/L; AST in Sera (IU/L) 24 hours After 0.5 MPK Injection [10]: 120.57 IU/L; Footpad Thickness (24 h−0 h, mm) (BALB/C mice [11]): 0.95 mm
CCCCCCCCCC(=O)OCCCCCCCN(CCCCCCCCOC(=O)C(CCCCCC)CCCCCCCC)CCOC(=O)NCCN1CCCC1 (centres unmarked) [Lipid 195]	0.2474	94.75	0.1254	114.3	6.123	16.37	94	75.44	1.62E+05	1.23E+07	9.03E+03	1.67E+07	103	116	96	77	3.91E+07	1.63E+08	2643.00	78.52	ALT in Sera (IU/L) 2 hours After 0.5 MPK Injection [9]: 109.00 IU/L; ALT in Sera (IU/L) 24 hours After 0.5 MPK Injection [9]: 35.00 IU/L; AST in Sera (IU/L) 2 hours After 0.5 MPK Injection [10]: 264.00 IU/L; AST in Sera (IU/L) 24 hours After 0.5 MPK Injection [10]: 84.67 IU/L; Footpad Thickness (24 h−0 h, mm) (BALB/C mice [11]): 0.56 mm
CCCCCCCCCC(=O)OCCCCCCCN(CCCCCCCCOC(=O)C(CCCCCC)CCCCCCCC)CCOC(=O)NCCN1CCCCC1 (centres unmarked) [Lipid 196]	0.0364	89.57	0.1806	117.5	0.4256	−2.076	93	91.87	5.54E+04	1.58E+06	1.22E+04	2.31E+06	103	91	91	110	1.86E+07	1.41E+08	489.33	197.30	ALT in Sera (IU/L) 2 hours After 0.5 MPK Injection [9]: 80.33 IU/L; ALT in Sera (IU/L) 24 hours After 0.5 MPK Injection [9]: 93.00 IU/L; AST in Sera (IU/L) 2 hours After 0.5 MPK Injection [10]: 202.33 IU/L; AST in Sera (IU/L) 24 hours After 0.5 MPK Injection [10]: 180.67 IU/L; Footpad Thickness (24 h−0 h, mm) (BALB/C mice [11]): 0.44 mm
